Data taken from patent US20180201654A1, “PEPTIDE INHIBITORS OF HAUSP DEUBIQUITINASE” (priority 2012, published 2018).
Where two headings read alike, the source gives them in different places.

How the values were obtained:
[1] = target: T1, HAUSP TRAF domain HAUSP^62-205 (Homo sapiens, UniProt Q93009); assay type: binding; parameters: All residues of HAUSP^62-205, with the exception of Asp^62, are included in the final model; hexahistidine tag (TEV-cleavable) (cleaved yes); made in house; host or cells: E. coli BL21 (DE3) RIPL; settings: for n: ITC binding stoichiometry, 150 mM NaCl, 10 mM HEPES (pH 7.0)
T1 sequence (Q93009 62-205): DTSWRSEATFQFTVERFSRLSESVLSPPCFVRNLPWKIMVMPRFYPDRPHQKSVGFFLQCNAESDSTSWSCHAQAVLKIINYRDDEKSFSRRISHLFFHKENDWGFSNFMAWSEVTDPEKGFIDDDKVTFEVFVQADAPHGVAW
Protocol: FIG. 5. Typical isothermal titration calorimetric measurements of the interactions between the HAUSP TRAF domain and the vIRF4 protein derivatives or other peptides. Purified proteins and synthesized peptides were reconstituted in 150 mM NaCl and 10 mM HEPES (pH 7.0). The calorimetric assays were performed using a VPITC system. All experiments were carried out with a stirring speed of 300 rpm at 20° C., and the thermal power was recorded every 10 s. Data were analyzed using the ORIGIN software package (version 7.0). […] Each titration against the HAUSP TRAF domain is indicated in each panel.
(§1) Purified proteins and synthesized peptides (Peptron Inc., Deajeon, Korea) were reconstituted in 150 mM NaCl and 10 mM HEPES (pH 7.0). The calorimetric assays were performed using a VP-ITC system (MicroCal Inc., Northampton, Mass.). Samples were degassed by vacuum aspiration for 15 min prior to loading. All experiments were carried out with a stirring speed of 300 rpm at 20° C., and the thermal power was recorded every 10 s. Data were analyzed using the ORIGIN software package (version 7.0) supplied with the instrument. […] (SEQ ID NO: 6); EBNA1^435-449, […] (SEQ ID NO: 7); MDM2^137-152, […] […] (SEQ ID NO: 10). Each set of ITC experiments was repeated two or three times.

[2] = tested on: primary TKI-resistant Ph^+ and normal ALL cells; test: Long-term cell culture of TKI-resistant ALL cells; assay type: cell-based, human; settings: single agent, FIG. 15
From the text: To test whether vif1 and vif2 peptides have killing effect on relapse leukemia, this example chose two different karyotype relapse ALL cells: Ph^+BCR-ABL^T3151 and normal. The T3151 mutation is one of the common mechanism of escape and resistance against all kinds of tyrosine kinase inhibitors (TKIs). After treatment of these peptides into several different relapse ALL cells, this example performed Trypan blue staining to select dead cells in time dependent manner. […] This example next validated the effect of nilotinib/TAT-vif1 (or TAT-vif2) combination on primary TKI-resistance in Ph^+ and normal ALL during long-term cell culture.

HAUSP TRAF domain = target: T2, HAUSP TRAF domain (Homo sapiens, UniProt Q93009); assay type: binding
T2 construct: All residues of HAUSP^62-205, with the exception of Asp^62, are included in the final model; hexahistidine tag (TEV-cleavable) (cleaved yes); made in house; host or cells: E. coli BL21 (DE3) RIPL
T2 sequence (Q93009 62-205): as above
Protocol: FIG. 9. Typical isothermal titration calorimetric measurements of the competitive binding of vIRF4 with TRAF domain against cellular substrates. […] Each competitive titration is indicated in the panel.
as §1
To further gauge the competitive nature of vIRF4 binding, the TRAF domain was incubated with an equal molar amount of vIRF4^153-216 in the presence of a 5-fold molar excess of MDM2^137-152, and the mixture was then analyzed by size exclusion chromatography.

USP8 = target: T3, USP8 (Homo sapiens, UniProt P40818); test: In vitro deubiquitination assay with purified USP8; assay type: biochemical; settings: 0.25 μM purified USP8 pre-mixed with peptide for 5 min; K48- or K63-linked chains
T3 sequence (P40818 1-1118): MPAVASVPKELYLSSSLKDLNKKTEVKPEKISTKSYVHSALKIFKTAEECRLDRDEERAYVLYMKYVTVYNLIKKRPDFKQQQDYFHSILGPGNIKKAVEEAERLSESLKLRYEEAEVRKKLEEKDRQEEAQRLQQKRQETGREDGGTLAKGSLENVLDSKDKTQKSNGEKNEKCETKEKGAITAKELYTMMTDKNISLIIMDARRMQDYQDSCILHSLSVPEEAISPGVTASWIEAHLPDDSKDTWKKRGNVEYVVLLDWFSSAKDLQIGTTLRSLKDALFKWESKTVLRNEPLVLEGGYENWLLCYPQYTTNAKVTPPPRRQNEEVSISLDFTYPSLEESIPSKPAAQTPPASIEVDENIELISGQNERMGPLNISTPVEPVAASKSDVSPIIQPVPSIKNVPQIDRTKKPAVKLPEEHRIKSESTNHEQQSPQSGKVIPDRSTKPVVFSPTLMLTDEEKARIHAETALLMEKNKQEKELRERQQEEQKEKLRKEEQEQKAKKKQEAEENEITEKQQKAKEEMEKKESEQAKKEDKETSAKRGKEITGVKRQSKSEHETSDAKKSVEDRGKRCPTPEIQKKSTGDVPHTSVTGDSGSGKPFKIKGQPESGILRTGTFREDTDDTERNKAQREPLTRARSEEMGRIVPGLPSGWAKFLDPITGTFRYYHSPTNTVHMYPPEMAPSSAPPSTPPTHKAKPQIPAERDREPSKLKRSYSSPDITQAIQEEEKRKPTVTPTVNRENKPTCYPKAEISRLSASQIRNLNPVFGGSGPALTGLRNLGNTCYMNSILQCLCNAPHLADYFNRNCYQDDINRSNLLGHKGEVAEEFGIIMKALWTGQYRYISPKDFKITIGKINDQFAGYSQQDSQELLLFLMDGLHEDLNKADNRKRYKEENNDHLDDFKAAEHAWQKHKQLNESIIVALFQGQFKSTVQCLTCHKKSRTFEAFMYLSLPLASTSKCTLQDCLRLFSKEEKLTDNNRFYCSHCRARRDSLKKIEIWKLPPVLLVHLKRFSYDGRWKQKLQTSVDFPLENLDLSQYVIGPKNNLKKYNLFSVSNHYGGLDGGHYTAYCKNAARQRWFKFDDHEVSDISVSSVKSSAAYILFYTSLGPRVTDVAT

[3] = tested on: p53, p21, MDM2 and HAUSP levels in PEL cells; test: Western blot of p53 and its transcriptional targets in PEL cells; assay type: cell-based, human; settings: peptide treatment
From the text: (§2) FIG. 3a-3g. […] Data are culled from 3 independent experiments.

HAUSP (USP7) [4] = target: T4, HAUSP (USP7) (Homo sapiens, UniProt Q93009); test: In vitro DUB assay with ubiquitinated MDM2 as substrate; settings: HAUSP preincubated with increasing amounts of peptide; 1 h at 37° C.
T4 sequence (Q93009 whole entry): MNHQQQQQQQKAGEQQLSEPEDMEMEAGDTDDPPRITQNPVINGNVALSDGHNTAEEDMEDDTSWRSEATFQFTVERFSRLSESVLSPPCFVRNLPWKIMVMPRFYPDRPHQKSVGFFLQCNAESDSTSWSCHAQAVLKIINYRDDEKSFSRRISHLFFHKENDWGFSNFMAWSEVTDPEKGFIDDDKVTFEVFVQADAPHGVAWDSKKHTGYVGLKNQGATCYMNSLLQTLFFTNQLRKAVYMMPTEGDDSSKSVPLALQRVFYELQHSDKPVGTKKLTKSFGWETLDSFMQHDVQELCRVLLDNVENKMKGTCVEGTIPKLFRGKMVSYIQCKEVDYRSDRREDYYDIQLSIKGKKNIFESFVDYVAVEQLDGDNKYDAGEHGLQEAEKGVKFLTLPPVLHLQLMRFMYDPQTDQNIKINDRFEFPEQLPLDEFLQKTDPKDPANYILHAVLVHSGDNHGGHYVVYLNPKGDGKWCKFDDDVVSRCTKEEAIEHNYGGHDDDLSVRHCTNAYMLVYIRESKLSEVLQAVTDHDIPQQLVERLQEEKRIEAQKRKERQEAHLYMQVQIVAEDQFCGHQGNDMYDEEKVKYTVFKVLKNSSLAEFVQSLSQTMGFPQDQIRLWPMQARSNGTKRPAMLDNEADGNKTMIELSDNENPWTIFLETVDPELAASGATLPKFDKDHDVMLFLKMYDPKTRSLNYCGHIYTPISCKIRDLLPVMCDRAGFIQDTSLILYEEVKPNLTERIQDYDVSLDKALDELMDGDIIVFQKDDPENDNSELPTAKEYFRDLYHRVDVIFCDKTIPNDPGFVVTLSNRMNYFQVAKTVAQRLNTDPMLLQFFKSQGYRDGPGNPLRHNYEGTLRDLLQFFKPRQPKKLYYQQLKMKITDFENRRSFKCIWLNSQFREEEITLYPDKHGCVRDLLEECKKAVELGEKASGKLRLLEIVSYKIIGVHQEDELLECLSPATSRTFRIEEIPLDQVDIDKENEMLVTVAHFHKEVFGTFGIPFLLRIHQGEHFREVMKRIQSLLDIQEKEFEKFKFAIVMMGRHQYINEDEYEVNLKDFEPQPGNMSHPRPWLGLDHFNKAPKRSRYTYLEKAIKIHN

HAUSP (USP7) [5] = target: T4, HAUSP (USP7); settings: time-course, K48-Ub3-7 chains, 37° C.
[6] = target: T1, HAUSP TRAF domain HAUSP^62-205; test: Size exclusion chromatography of complex formation in excess MDM2^137-152; assay type: binding; parameters: hexahistidine tag (TEV-cleavable) (cleaved yes); made in house; host or cells: E. coli BL21 (DE3) RIPL; settings: in the presence of a 5-fold molar excess of MDM2^137-152
[7] = tested on: PEL cells carrying p53 (wt); test: Apoptosis assay (Annexin V/PI, flow cytometry) in PEL cells; assay type: cell-based, human; settings: 10 μM
Protocol: as §2
The proportion of cells at the S phase was determined by measuring incorporation of BrdU and 7-amino-actionomycin D (ADD) into DNA. Cells were grown at a density of 5×10^6 cells/ml indicated periods with the treatment of either peptide or Nutlin-3a. The cells were pulse-labeled with 10 μM BrdU for 30 min. Cells were permeabilized, fixed and BrdU-, 7AAD-stained using the BrdU Flow Kit (BD Pharmingen) according to manufacturer's instructions. Stained cells were analyzed by flow cytometry to determine the cell-cycle distribution on a FACS Scan (BD FACSCanto™ II). Apoptosis was measured by dual-labeling with the Annexin V-FITC Apoptosis Detection kit I (BD biosciences-Pharmingen) according to the manufacturer's instruction and analyzed by Flow Jo software.
Shown is one representative experiment of three. It was shown that vif1/2 peptides cause cell death by apoptosis.
In this respect, BCBL-1 cells were treated with 100 μM of either vif1 or vif2 peptide for the indicated time periods and then subjected to Annexin V and PI staining, followed by FACS analysis. 10 μM Nutlin-3a was used as a positive control.

| Molecule | n ([1]; 20° C.) | TΔS ([1]; ITC, 20° C., pH 7.0) [kcal/mol] | ΔG ([1]; ITC, 20° C., pH 7.0) [kcal/mol] | ΔH ([1]; ITC, 20° C., pH 7.0) [kcal/mol] | USP8 DUB activity (USP8) | HAUSP levels [3] | HAUSP DUB activity against ubiquitinated MDM2 (HAUSP (USP7) [4]) | HAUSP DUB activity, comparative kinetic analysis (HAUSP (USP7) [5]) | further results |
| --- | --- | --- | --- | --- | --- | --- | --- | --- | --- |
| C[C@H](NC(=O)[C@@H]1CCCN1C(=O)CNC(=O)[C@H](CCC(N)=O)NC(=O)[C@@H](N)CCC(=O)O)C(=O)N[C@@H](CC(=O)O)C(=O)N[C@@H](CC(=O)O)C(=O)N1CCC[C@H]1C(=O)NCC(=O)N[C@@H](CCC(=O)O)C(=O)NCC(=O)N1CCC[C@H]1C(=O)N[C@@H](CO)C(=O)N[C@H](C(=O)NCC(=O)O)[C@@H](C)O [EBNA1^435-449, reference compound] | 0.81 ± 0.01 | -8.69 | -8.48 | -17.17 ± 0.13 |  |  |  |  | Ka ([1]; ITC, 20° C., pH 7.0): 2.10 ± 0.15 10^6 M^−1 |
| Cc1cn(-c2cc(NC(=O)c3ccc(C)c(Nc4nccc(-c5cccnc5)n4)c3)cc(C(F)(F)F)c2)cn1 [nilotinib] |  |  |  |  |  |  |  |  | response of refractory ALL cells in long-term culture [2]: did not achieve a therapeutic response |
| CC[C@H](C)[C@H](NC(=O)[C@H](Cc1c[nH]c2ccccc12)NC(=O)[C@@H](NC(=O)[C@@H](N)CO)C(C)C)C(=O)N1CCC[C@H]1C(=O)N[C@H](C(=O)N[C@@H](CC(N)=O)C(=O)N[C@@H](CCC(=O)O)C(=O)NCC(=O)N[C@@H](C)C(=O)N[C@@H](CO)C(=O)N[C@H](C(=O)N[C@@H](CO)C(=O)NCC(=O)N[C@@H](CCSC)C(=O)O)[C@@H](C)O)C(C)C [vIRF4^202-216] | 0.84 ± 0.01 | -10.63 | -8.60 | -19.22 ± 0.05 | can not inhibit | Neither vif1 nor vif2 peptide treatment altered | efficiently blocked | weakly attenuated | association constant (Kobs) (HAUSP TRAF domain; competitor titrated against MDM2^137-152-bound TRAF): 1.09e+07 M⁻¹; association constant (Kobs) (HAUSP TRAF domain; competitor titrated against p53^350-364-bound TRAF): 4.42e+07 M⁻¹; association constant (Kobs) (HAUSP TRAF domain; competitor titrated against p53^355-369-bound TRAF): 3.58e+07 M⁻¹; Kobs (HAUSP TRAF domain; titrated to MDM2^137-152-TRAF): 10.875 ± 1.308 10^6 M^−1; ΔHobs (HAUSP TRAF domain; titrated to MDM2^137-152-TRAF): -25.870 ± 0.240 kcal/mol; Kobs (HAUSP TRAF domain; titrated to p53^350-364-TRAF): 44.200 ± 4.200 10^6 M^−1; ΔHobs (HAUSP TRAF domain; titrated to p53^350-364-TRAF): -19.070 ± 0.194 kcal/mol; Kobs (HAUSP TRAF domain; titrated to p53^355-369-TRAF): 35.800 ± 3.400 10^6 M^−1; ΔHobs (HAUSP TRAF domain; titrated to p53^355-369-TRAF): -19.150 ± 0.203 kcal/mol; complex formation with the TRAF domain [6]: formed a stable complex; tighter binding to the TRAF domain compared to the peptides derived from MDM2 and p53 ([1]; ITC): 28-40 fold |
| COc1ccc(C2=N[C@@H](c3ccc(Cl)cc3)[C@@H](c3ccc(Cl)cc3)N2C(=O)N2CCNC(=O)C2)c(OC(C)C)c1 [Nutlin-3a] |  |  |  |  |  |  |  |  | cell death [7]: considerable cell death |
| TRQVTQASSFTWRVPG (GTRQVTQASSFTWRVPG; Human herpesvirus 8) [vif2] |  |  |  |  | can not inhibit | Neither vif1 nor vif2 peptide treatment altered | efficiently blocked | completely suppressed |  |
